Measurements published in patent US10441663B2, “Methods for treating cancer” (Bicycle Therapeutics Limited, priority 2016, dated 2019).
*1 amine or outer side, *2 acyl side, *3 side chain or, on linkers, in order; H or OH if unused. Where a SMILES comes first, the peptide text is derived from it. Bridges are numbered along the chain shown (N, C = ends). [ ]: non-standard residue; d: D form. The star is where a group is joined. X1 = COc1cc2cc(c1Cl)N(C)C(=O)C[C@H](OC(=O)[C@H](C)N(C)C(=O)CCSSC(C)CCC(=O)*)[C@]1(C)O[C@H]1[C@H](C)[C@@H]1C[C@@](O)(NC(=O)O1)[C@H](OC)/C=C/C=C(\C)C2; 1Nal = N[C@@H](Cc1cccc2ccccc12)C(=O)O; TBMB = c1c(C[*:1])cc(C[*:3])cc1C[*:2]; Tle = CC(C)(C)[C@H](N)C(=O)O; βAla = NCCC(=O)O; Sar = CNCC(=O)O

Test system: HT1080 xenograft
Assay: In vivo efficacy of BT1718 in HT1080 xenograft
Parameters: species or system Mus Musculus; key to Best response at 10 mg/kg: CR complete response; PR partial response
Method: The objective of this study was to evaluate the in vivo anti-tumor efficacy of BT1718in treatment of HT1080, NCI-H292, NCI-H1975, MDA-MB-231, HCC1806, RPMI2650, HCT-15, HT-29 and SNU-16 xenograft in BALB/c nude mice.
The HT1080, NCI-H292, NCI-H1975, MDA-MB-231, HCC1806, RPMI2650, HCT-15, HT-29 and SNU-16 tumor cells were maintained in vitro as a monolayer culture in medium supplemented with 10% heat inactivated fetal bovine serum at 37° C. in an […]. The tumor cells will be routinely subcultured twice weekly by trypsin-EDTA treatment. The cells growing in an exponential growth phase will be harvested and counted for tumor inoculation.
Mouse was inoculated subcutaneously at the right flank with tumor cells for tumor development. The animals were randomized and treatment was started when the average tumor reaches certain volume for the efficacy study, the inoculating cell amounts and starting tumor size were shown as below in Table 9. The test article administration and the animal numbers in each group were shown in the experimental design in Table 10.
All the procedures related to animal handling, care and the treatment in the study were performed according to the guidelines of the Association for Assessment and Accreditation of Laboratory Animal Care (AAALAC). At the time of routine monitoring, the animals were daily checked for any effects of tumor growth and treatments on normal behavior such as mobility, food and water consumption (by looking only), body weight gain/loss (body weights were measured every day), eye/hair matting and any other abnormal effect as stated in the protocol. Death and observed clinical signs were recorded on the basis of the numbers of animals within each subset.
The major endpoint was to see if the tumor growth could be delayed or mice could be cured. Tumor size was measured three times weekly in two dimensions using a caliper, and the volume was expressed in mm^3 using the formula: V=0.5 a×b^2 where a and b are the long and short diameters of the tumor, respectively. The tumor size was then used for calculations of T/C value. The T/C value (in percent) is an indication of antitumor effectiveness; T and C are the mean volumes of the treated and control groups, respectively, on a given day.
TGI was calculated for each group using the formula: TGI (%)=[1−(Ti−T0)/(Vi−V0)]×100; Ti is the average tumor volume of a treatment group on a given day, T0 is the average tumor volume of the treatment group on the day of treatment start, Vi is the average tumor volume of the vehicle control group on the same day with Ti, and V0 is the average tumor volume of the vehicle group on the day of treatment start.
Summary statistics, including mean and the standard error of the mean (SEM), are provided for the tumor volume of each group at each time point.
Statistical analysis of difference in tumor volume among the groups was conducted on the data obtained at the best therapeutic time point after the final dose.
A one-way ANOVA was performed to compare tumor volume among groups, and when a significant F-statistics (a ratio of treatment variance to the error variance) was obtained, comparisons between groups were carried out with Games-Howell test. All data were analyzed using Prism. P<0.05 was considered to be statistically significant.

Structure (SMILES): COc1cc2cc(c1Cl)N(C)C(=O)C[C@H](OC(=O)[C@H](C)N(C)C(=O)CCSSC(C)CCC(=O)NCCC(=O)N(C)CC(=O)N(C)CC(=O)N(C)CC(=O)N(C)CC(=O)N(C)CC(=O)N(C)CC(=O)N(C)CC(=O)N(C)CC(=O)N(C)CC(=O)N(C)CC(=O)N[C@@H](C)C(=O)N[C@H]1CSCc3cc4cc(c3)CSC[C@H](NC(=O)[C@@H](C)NC(=O)[C@H](Cc3cccc5ccccc35)NC(=O)[C@H](CCC(=O)O)NC(=O)[C@H](CC(N)=O)NC(=O)[C@@H](C)NC1=O)C(=O)N[C@@H](CCC(=O)O)C(=O)N[C@@H](CC(=O)O)C(=O)N[C@@H](Cc1ccccc1)C(=O)N[C@@H](Cc1ccc(O)cc1)C(=O)N[C@@H](CC(=O)O)C(=O)N[C@@H](C(C)(C)C)C(=O)N[C@H](C(N)=O)CSC4)[C@]1(C)O[C@H]1[C@H](C)[C@@H]1C[C@@](O)(NC(=O)O1)[C@H](OC)/C=C/C=C(\C)C2 (stereo partly drawn) [BT1718] ({X1-βAla}-[Sar][Sar][Sar][Sar][Sar][Sar][Sar][Sar][Sar][Sar]AC[dA]NE[1Nal][dA]CEDFYD[Tle]C-NH2; linker 12-18-25 via TBMB (inferred))
- animals with transient response on re-dosing (3 mg/kg biw): 1/3
- animals that ultimately re-grew despite dosing (3 mg/kg biw re-dosing): 3/3
- re-growth during dosing suspension (10 mg/kg biw, suspension period of 2 months): did not re-grow
- response on re-dosing of the relapsed animal (10 mg/kg qw, re-growth in weeks 3-4 of re-dosing): transient response
- Body Weight (1 mpk biw, day 0): 22.7 ± 0.5 g
- Tumor Volume (1 mpk biw, day 0): 177 ± 6 mm^3
- Body Weight (1 mpk biw, day 2): 22.2 ± 0.4 g
- Tumor Volume (1 mpk biw, day 2): 265 ± 33 mm^3
- Body Weight (1 mpk biw, day 4): 22.3 ± 0.2 g
- Tumor Volume (1 mpk biw, day 4): 669 ± 107 mm^3
- Body Weight (1 mpk biw, day 7): 22.2 ± 0.2 g
- Tumor Volume (1 mpk biw, day 7): 1009 ± 156 mm^3
- Body Weight (1 mpk biw, day 9): 21.5 ± 0.2 g
- Tumor Volume (1 mpk biw, day 9): 1318 ± 146 mm^3
- Body Weight (1 mpk biw, day 11): 20.1 ± 0.1 g
- Tumor Volume (1 mpk biw, day 11): 1526 ± 160 mm^3
- Body Weight (1 mpk biw, day 14): 19.4 ± 0.0 g
- Tumor Volume (1 mpk biw, day 14): 1650 ± 218 mm^3
- Body Weight (1 mpk qw, day 0): 22.5 ± 0.6 g
- Tumor Volume (1 mpk qw, day 0): 178 ± 4 mm^3
- Body Weight (1 mpk qw, day 2): 22.2 ± 0.5 g
- Tumor Volume (1 mpk qw, day 2): 257 ± 26 mm^3
- Body Weight (1 mpk qw, day 4): 22.6 ± 0.5 g
- Tumor Volume (1 mpk qw, day 4): 627 ± 112 mm^3
- Body Weight (1 mpk qw, day 7): 22.3 ± 0.3 g
- Tumor Volume (1 mpk qw, day 7): 934 ± 176 mm^3
- Body Weight (1 mpk qw, day 9): 22.2 ± 0.3 g
- Tumor Volume (1 mpk qw, day 9): 1253 ± 182 mm^3
- Body Weight (1 mpk qw, day 11): 20.5 ± 0.3 g
- Tumor Volume (1 mpk qw, day 11): 1593 ± 251 mm^3
- Body Weight (1 mpk qw, day 14): 19.6 ± 0.2 g
- Tumor Volume (1 mpk qw, day 14): 1814 ± 320 mm^3
- Body Weight (3 mpk biw, day 0): 23.1 ± 0.6 g
- Tumor Volume (3 mpk biw, day 0): 178 ± 15 mm^3
- Body Weight (3 mpk biw, day 2): 22.8 ± 0.9 g
- Tumor Volume (3 mpk biw, day 2): 196 ± 16 mm^3
- Body Weight (3 mpk biw, day 4): 22.5 ± 0.7 g
- Tumor Volume (3 mpk biw, day 4): 100 ± 10 mm^3
- Body Weight (3 mpk biw, day 7): 23.4 ± 0.8 g
- Tumor Volume (3 mpk biw, day 7): 39 ± 8 mm^3
- Body Weight (3 mpk biw, day 9): 24 ± 1.1 g
- Tumor Volume (3 mpk biw, day 9): 18 ± 10 mm^3
- Body Weight (3 mpk biw, day 11): 24.5 ± 0.9 g
- Tumor Volume (3 mpk biw, day 11): 8 ± 8 mm^3
- Body Weight (3 mpk biw, day 14): 24.7 ± 0.9 g
- Tumor Volume (3 mpk biw, day 14): 3 ± 3 mm^3
- Body Weight (3 mpk qw, day 0): 22.6 ± 0.3 g
- Tumor Volume (3 mpk qw, day 0): 179 ± 18 mm^3
- Body Weight (3 mpk qw, day 2): 21.4 ± 0.2 g
- Tumor Volume (3 mpk qw, day 2): 191 ± 17 mm^3
- Body Weight (3 mpk qw, day 4): 21.8 ± 0.8 g
- Tumor Volume (3 mpk qw, day 4): 183 ± 90 mm^3
- Body Weight (3 mpk qw, day 7): 22.0 ± 1.1 g
- Tumor Volume (3 mpk qw, day 7): 218 ± 149 mm^3
- Body Weight (3 mpk qw, day 9): 21.3 ± 0.7 g
- Tumor Volume (3 mpk qw, day 9): 266 ± 142 mm^3
- Body Weight (3 mpk qw, day 11): 21.4 ± 0.5 g
- Tumor Volume (3 mpk qw, day 11): 254 ± 125 mm^3
- Body Weight (3 mpk qw, day 14): 21.0 ± 0.6 g
- Tumor Volume (3 mpk qw, day 14): 306 ± 119 mm^3
- Body Weight (10 mpk biw, day 0): 22.5 ± 1.0 g
- Tumor Volume (10 mpk biw, day 0): 180 ± 21 mm^3
- Body Weight (10 mpk biw, day 2): 21.8 ± 1.2 g
- Tumor Volume (10 mpk biw, day 2): 182 ± 41 mm^3
- Body Weight (10 mpk biw, day 4): 21.8 ± 1.1 g
- Tumor Volume (10 mpk biw, day 4): 58 ± 14 mm^3
- Body Weight (10 mpk biw, day 7): 22.7 ± 0.9 g
- Tumor Volume (10 mpk biw, day 7): 32 ± 7 mm^3
- Body Weight (10 mpk biw, day 9): 22.1 ± 0.9 g
- Tumor Volume (10 mpk biw, day 9): 27 ± 14 mm^3
- Body Weight (10 mpk biw, day 11): 22 ± 1.1 g
- Tumor Volume (10 mpk biw, day 11): 26 ± 13 mm^3
- Body Weight (10 mpk biw, day 14): 22.6 ± 1.0 g
- Tumor Volume (10 mpk biw, day 14): 20 ± 11 mm^3
- Body Weight (10 mpk qw, day 0): 22.6 ± 1.2 g
- Tumor Volume (10 mpk qw, day 0): 179 ± 14 mm^3
- Body Weight (10 mpk qw, day 2): 21.1 ± 1.2 g
- Tumor Volume (10 mpk qw, day 2): 146 ± 19 mm^3
- Body Weight (10 mpk qw, day 4): 22.1 ± 1.2 g
- Tumor Volume (10 mpk qw, day 4): 35 ± 4 mm^3
- Body Weight (10 mpk qw, day 7): 23.2 ± 1.0 g
- Tumor Volume (10 mpk qw, day 7): 25 ± 3 mm^3
- Body Weight (10 mpk qw, day 9): 22.7 ± 1.1 g
- Tumor Volume (10 mpk qw, day 9): 15 ± 8 mm^3
- Body Weight (10 mpk qw, day 11): 23.8 ± 1.3 g
- Tumor Volume (10 mpk qw, day 11): 5 ± 5 mm^3
- Body Weight (10 mpk qw, day 14): 24.8 ± 1.5 g
- Tumor Volume (10 mpk qw, day 14): 5 ± 5 mm^3
- Best response at 10 mg/kg (HT1080, 10 mg/kg): CR
- TGI (HT1080, 1 mpk, biw, day 14): 26.5%
- Tumor Volume (HT1080, 1 mpk, biw, day 14): 1650 ± 218 mm^3
- TGI (HT1080, 1 mpk, qw, day 14): 18.4%
- Tumor Volume (HT1080, 1 mpk, qw, day 14): 1814 ± 320 mm^3
- TGI (HT1080, 3 mpk, biw, day 14): 108.7%
- Tumor Volume (HT1080, 3 mpk, biw, day 14): 3 ± 3 mm^3
- TGI (HT1080, 3 mpk, qw, day 14): 93.7%
- Tumor Volume (HT1080, 3 mpk, qw, day 14): 306 ± 119 mm^3
- TGI (HT1080, 10 mpk, biw, day 14): 108.0%
- Tumor Volume (HT1080, 10 mpk, biw, day 14): 20 ± 11 mm^3
- TGI (HT1080, 10 mpk, qw, day 14): 108.7%
- Tumor Volume (HT1080, 10 mpk, qw, day 14): 5 ± 5 mm^3
- Minimally Effective Dose IV BIW (HT1080, dose leading to tumor-stasis): <3 mg/kg
- tumor response (after 2 weeks, 3 mg/kg biw, 10 mg/kg qw and 10 mg/kg biw): completely regressed
- animals with re-growth to 150 mm3 following cessation of dosing (previously 3 mg/kg biw): 3/3
- animals with re-growth to 150 mm3 following cessation of dosing (previously 10 mg/kg qw): 1/3
